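Dose response: 5 concentrations. Exposure: 48 h. Format: 96-well plates. Endpoint: linear interpolation; highest concentration if not reached. Here, GI50 denotes the concentration required for 50% inhibition of growth. The concentration for full growth arrest is given as TGI.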
Legend:
Experiment in all cases: NCI tumour cell line growth inhibition, 48 h
786-0 renal = test system: 786-0 renal
A498 renal = test system: A498 renal
A549 NSCLC = test system: A549 NSCLC
ACHN renal = test system: ACHN renal
BT-549 breast = test system: BT-549 breast
CAKI-1 renal = test system: CAKI-1 renal
CCRF-CEM leukemia = test system: CCRF-CEM leukemia
COLO 205 colon = test system: COLO 205 colon
DU-145 prostate = test system: DU-145 prostate
EKVX NSCLC = test system: EKVX NSCLC
HCC-2998 colon = test system: HCC-2998 colon
HCT-116 colon = test system: HCT-116 colon
HCT-15 colon = test system: HCT-15 colon
HL-60(TB) leukemia = test system: HL-60(TB) leukemia
HOP-62 NSCLC = test system: HOP-62 NSCLC
HOP-92 NSCLC = test system: HOP-92 NSCLC
HT29 colon = test system: HT29 colon
IGROV1 ovarian = test system: IGROV1 ovarian
K-562 leukemia = test system: K-562 leukemia
KM12 colon = test system: KM12 colon
LOX IMVI melanoma = test system: LOX IMVI melanoma
M14 melanoma = test system: M14 melanoma
MALME-3M melanoma = test system: MALME-3M melanoma
MCF7 breast = test system: MCF7 breast
MDA-MB-231 breast = test system: MDA-MB-231 breast
MDA-MB-435 = test system: MDA-MB-435
MDA-MB-468 breast = test system: MDA-MB-468 breast
MOLT-4 leukemia = test system: MOLT-4 leukemia
NCI-H226 lung = test system: NCI-H226 lung
NCI-H23 lung = test system: NCI-H23 lung
NCI-H460 lung = test system: NCI-H460 lung
NCI/ADR-RES ovarian = test system: NCI/ADR-RES ovarian
OVCAR-3 ovarian = test system: OVCAR-3 ovarian
OVCAR-4 ovarian = test system: OVCAR-4 ovarian
OVCAR-5 ovarian = test system: OVCAR-5 ovarian
OVCAR-8 ovarian = test system: OVCAR-8 ovarian
PC-3 prostate = test system: PC-3 prostate
RPMI-8226 leukemia = test system: RPMI-8226 leukemia
RXF 393 renal = test system: RXF 393 renal
SF-268 CNS = test system: SF-268 CNS
SF-295 CNS = test system: SF-295 CNS
SF-539 CNS = test system: SF-539 CNS
SK-MEL-2 melanoma = test system: SK-MEL-2 melanoma
SK-MEL-28 melanoma = test system: SK-MEL-28 melanoma
SK-MEL-5 melanoma = test system: SK-MEL-5 melanoma
SK-OV-3 ovarian = test system: SK-OV-3 ovarian
SN12C renal = test system: SN12C renal
SNB-19 CNS = test system: SNB-19 CNS
SNB-75 CNS = test system: SNB-75 CNS
SR leukemia = test system: SR leukemia
SW-620 colon = test system: SW-620 colon
T-47D breast = test system: T-47D breast
TK-10 renal = test system: TK-10 renal
U251 CNS = test system: U251 CNS
UACC-257 melanoma = test system: UACC-257 melanoma
UACC-62 melanoma = test system: UACC-62 melanoma
UO-31 renal = test system: UO-31 renal

COc1cc2c(cc1OC)/C(=C\c1sc(Nc3ccc(O)cc3)nc1O)C(C(=O)O)=N2
GI50 (786-0 renal): 513 nM | TGI (786-0 renal): 45100 nM | GI50 (A498 renal): 32100 nM | TGI (A498 renal): > 100000 nM | GI50 (A549 NSCLC): 21600 nM | TGI (A549 NSCLC): > 100000 nM | GI50 (ACHN renal): 6530 nM | TGI (ACHN renal): > 100000 nM | GI50 (BT-549 breast): 654 nM | TGI (BT-549 breast): 75000 nM | GI50 (CAKI-1 renal): 95500 nM | TGI (CAKI-1 renal): > 100000 nM | GI50 (CCRF-CEM leukemia): 413 nM | TGI (CCRF-CEM leukemia): > 100000 nM | GI50 (COLO 205 colon): 1440 nM | TGI (COLO 205 colon): 9070 nM | GI50 (DU-145 prostate): 588 nM | TGI (DU-145 prostate): 33300 nM | GI50 (EKVX NSCLC): 11200 nM | TGI (EKVX NSCLC): > 100000 nM | GI50 (HCC-2998 colon): 631 nM | TGI (HCC-2998 colon): > 100000 nM | GI50 (HCT-116 colon): 489 nM | TGI (HCT-116 colon): > 100000 nM | GI50 (HCT-15 colon): 783 nM | TGI (HCT-15 colon): > 100000 nM | GI50 (HL-60(TB) leukemia): 291 nM | TGI (HL-60(TB) leukemia): 986 nM | GI50 (HOP-62 NSCLC): 620 nM | TGI (HOP-62 NSCLC): 59100 nM | GI50 (HOP-92 NSCLC): 5890 nM | TGI (HOP-92 NSCLC): 91600 nM | GI50 (HT29 colon): 2830 nM | TGI (HT29 colon): 26000 nM | GI50 (IGROV1 ovarian): 2700 nM | TGI (IGROV1 ovarian): > 100000 nM | GI50 (K-562 leukemia): 369 nM | TGI (K-562 leukemia): > 100000 nM | GI50 (KM12 colon): 557 nM | TGI (KM12 colon): > 100000 nM | GI50 (LOX IMVI melanoma): 501 nM | TGI (LOX IMVI melanoma): > 100000 nM | GI50 (M14 melanoma): 376 nM | TGI (M14 melanoma): 30000 nM | GI50 (MALME-3M melanoma): 336 nM | TGI (MALME-3M melanoma): > 100000 nM | GI50 (MCF7 breast): 394 nM | TGI (MCF7 breast): > 100000 nM | GI50 (MDA-MB-231 breast): 1320 nM | TGI (MDA-MB-231 breast): 63300 nM | GI50 (MDA-MB-435): 187 nM | TGI (MDA-MB-435): 389 nM | GI50 (MDA-MB-468 breast): 1120 nM | TGI (MDA-MB-468 breast): 5290 nM | GI50 (MOLT-4 leukemia): 446 nM | TGI (MOLT-4 leukemia): > 100000 nM | GI50 (NCI-H226 lung): 16600 nM | TGI (NCI-H226 lung): > 100000 nM | GI50 (NCI-H23 lung): 815 nM | TGI (NCI-H23 lung): 41800 nM | GI50 (NCI-H460 lung): 954 nM | TGI (NCI-H460 lung): > 100000 nM | GI50 (NCI/ADR-RES ovarian): > 100000 nM | TGI (NCI/ADR-RES ovarian): > 100000 nM | GI50 (OVCAR-3 ovarian): 287 nM | TGI (OVCAR-3 ovarian): 797 nM | GI50 (OVCAR-4 ovarian): 4570 nM | TGI (OVCAR-4 ovarian): > 100000 nM | GI50 (OVCAR-5 ovarian): 4510 nM | TGI (OVCAR-5 ovarian): > 100000 nM | GI50 (OVCAR-8 ovarian): 775 nM | TGI (OVCAR-8 ovarian): > 100000 nM | GI50 (PC-3 prostate): 666 nM | TGI (PC-3 prostate): > 100000 nM | GI50 (RPMI-8226 leukemia): 5170 nM | TGI (RPMI-8226 leukemia): > 100000 nM | GI50 (RXF 393 renal): 527 nM | TGI (RXF 393 renal): 3210 nM | GI50 (SF-268 CNS): 581 nM | TGI (SF-268 CNS): > 100000 nM | GI50 (SF-295 CNS): 498 nM | TGI (SF-295 CNS): 14100 nM | GI50 (SF-539 CNS): 456 nM | TGI (SF-539 CNS): 2760 nM | GI50 (SK-MEL-2 melanoma): 586 nM | TGI (SK-MEL-2 melanoma): 86300 nM | GI50 (SK-MEL-28 melanoma): 842 nM | TGI (SK-MEL-28 melanoma): > 100000 nM | GI50 (SK-MEL-5 melanoma): 510 nM | TGI (SK-MEL-5 melanoma): 28400 nM | GI50 (SK-OV-3 ovarian): 817 nM | TGI (SK-OV-3 ovarian): > 100000 nM | GI50 (SN12C renal): 2050 nM | TGI (SN12C renal): > 100000 nM | GI50 (SNB-19 CNS): 462 nM | TGI (SNB-19 CNS): 27800 nM | GI50 (SNB-75 CNS): 217 nM | TGI (SNB-75 CNS): 2950 nM | GI50 (SR leukemia): 277 nM | TGI (SR leukemia): > 100000 nM | GI50 (SW-620 colon): 449 nM | TGI (SW-620 colon): > 100000 nM | GI50 (T-47D breast): 2910 nM | TGI (T-47D breast): > 100000 nM | GI50 (TK-10 renal): 5730 nM | TGI (TK-10 renal): > 100000 nM | GI50 (U251 CNS): 353 nM | TGI (U251 CNS): 16700 nM | GI50 (UACC-257 melanoma): 1910 nM | TGI (UACC-257 melanoma): > 100000 nM | GI50 (UACC-62 melanoma): 498 nM | TGI (UACC-62 melanoma): > 100000 nM | GI50 (UO-31 renal): 4200 nM | TGI (UO-31 renal): > 100000 nM

— PubChem BioAssay (NCI)
